# Data from article PMC12564180 (International Journal of Molecular Sciences, 2025).
# Legend:
# Type in all cases: in vitro ADME
# CYP1A1 = molecular target: T1, CYP1A1 (Homo sapiens, UniProt P04798); test: Incubation of filapixant with human recombinant CYP1A1 (Supersomes); settings: 1 µM [3H]filapixant, CYP1A1, 60 min
# T1 construct: purchased
# T1 sequence (P04798 1-512): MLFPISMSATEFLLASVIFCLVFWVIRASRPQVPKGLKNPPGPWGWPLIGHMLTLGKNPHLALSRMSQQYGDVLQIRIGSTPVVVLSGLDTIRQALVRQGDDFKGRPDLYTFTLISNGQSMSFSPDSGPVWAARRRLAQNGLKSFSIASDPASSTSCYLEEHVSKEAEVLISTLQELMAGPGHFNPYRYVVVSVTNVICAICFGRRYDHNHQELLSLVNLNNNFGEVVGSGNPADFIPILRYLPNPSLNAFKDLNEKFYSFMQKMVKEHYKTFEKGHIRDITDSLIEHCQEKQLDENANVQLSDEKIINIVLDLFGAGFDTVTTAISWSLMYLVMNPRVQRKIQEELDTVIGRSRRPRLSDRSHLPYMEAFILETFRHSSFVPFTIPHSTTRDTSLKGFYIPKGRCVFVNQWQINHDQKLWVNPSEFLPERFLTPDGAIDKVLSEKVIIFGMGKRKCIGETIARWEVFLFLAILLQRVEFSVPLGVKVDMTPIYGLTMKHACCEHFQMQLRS
# CYP2B6 = molecular target: T2, CYP2B6 (Homo sapiens, UniProt P20813); test: Incubation of [3H]filapixant with human recombinant CYP2B6 (Supersomes); settings: 1 µM [3H]filapixant, CYP2B6, 60 min
# T2 construct: purchased
# T2 sequence (P20813 1-491): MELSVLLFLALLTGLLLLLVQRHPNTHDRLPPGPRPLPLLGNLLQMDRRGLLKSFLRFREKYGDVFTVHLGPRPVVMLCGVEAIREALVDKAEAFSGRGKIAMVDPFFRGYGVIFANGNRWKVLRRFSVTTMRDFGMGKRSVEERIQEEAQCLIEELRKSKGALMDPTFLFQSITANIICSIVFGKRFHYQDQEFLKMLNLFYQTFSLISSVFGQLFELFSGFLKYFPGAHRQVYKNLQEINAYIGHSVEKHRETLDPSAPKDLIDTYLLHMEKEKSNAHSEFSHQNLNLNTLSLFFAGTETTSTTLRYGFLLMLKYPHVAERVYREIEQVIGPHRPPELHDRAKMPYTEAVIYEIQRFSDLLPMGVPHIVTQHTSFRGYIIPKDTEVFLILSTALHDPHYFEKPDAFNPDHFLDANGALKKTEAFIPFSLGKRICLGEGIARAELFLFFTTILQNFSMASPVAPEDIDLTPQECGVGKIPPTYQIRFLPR
# CYP3A4 = molecular target: T3, CYP3A4 (Homo sapiens, UniProt P08684); test: Incubation of filapixant with human recombinant CYP3A4 (Supersomes)
# T3 construct: purchased
# CYP3A5 = molecular target: T4, CYP3A5 (Homo sapiens, UniProt P20815); test: Incubation of [3H]filapixant with human recombinant CYP3A5 (Supersomes); settings: 1 µM [3H]filapixant, CYP3A5, 60 min
# T4 construct: purchased
# [1] = Biotransformation and enzyme kinetics of filapixant in human liver microsomes; settings: [3H]filapixant 1 µM, pooled human liver microsomes, 1 h of incubation, n = 1
# Method: The incubations were analyzed by high-performance liquid chromatography (HPLC) with tandem mass spectroscopy (MS/MS) followed by off-line radioactivity detection to generate metabolite profiles and elucidate or confirm the structures of the metabolites formed.
# [2] = as above
# T3 sequence (P08684 whole entry): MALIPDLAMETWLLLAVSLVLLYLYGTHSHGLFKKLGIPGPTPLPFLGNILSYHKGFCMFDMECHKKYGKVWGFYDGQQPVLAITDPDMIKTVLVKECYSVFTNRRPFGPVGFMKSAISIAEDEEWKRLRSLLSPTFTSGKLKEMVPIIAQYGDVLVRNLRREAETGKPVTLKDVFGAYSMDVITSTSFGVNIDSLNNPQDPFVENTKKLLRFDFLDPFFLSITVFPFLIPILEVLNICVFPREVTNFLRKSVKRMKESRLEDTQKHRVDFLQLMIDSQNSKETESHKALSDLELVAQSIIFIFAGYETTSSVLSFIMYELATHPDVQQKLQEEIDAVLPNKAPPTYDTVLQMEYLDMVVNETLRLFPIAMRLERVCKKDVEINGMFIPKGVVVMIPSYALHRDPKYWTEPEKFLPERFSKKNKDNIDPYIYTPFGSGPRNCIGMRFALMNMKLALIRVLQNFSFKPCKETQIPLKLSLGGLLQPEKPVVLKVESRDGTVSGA
# T4 sequence (P20815 whole entry): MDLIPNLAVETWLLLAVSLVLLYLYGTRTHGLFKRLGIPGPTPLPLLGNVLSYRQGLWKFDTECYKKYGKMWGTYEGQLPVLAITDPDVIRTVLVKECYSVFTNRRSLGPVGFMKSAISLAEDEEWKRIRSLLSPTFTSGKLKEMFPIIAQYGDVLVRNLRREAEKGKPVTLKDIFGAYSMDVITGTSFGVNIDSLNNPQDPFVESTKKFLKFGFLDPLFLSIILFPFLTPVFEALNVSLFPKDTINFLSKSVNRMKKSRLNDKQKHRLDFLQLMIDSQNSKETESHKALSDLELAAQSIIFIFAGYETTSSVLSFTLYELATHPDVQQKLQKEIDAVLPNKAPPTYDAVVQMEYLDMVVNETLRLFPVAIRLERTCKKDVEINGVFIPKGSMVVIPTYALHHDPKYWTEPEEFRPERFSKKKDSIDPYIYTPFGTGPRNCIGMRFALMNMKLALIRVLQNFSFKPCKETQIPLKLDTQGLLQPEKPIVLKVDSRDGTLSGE
compound,measurement,setting,value
Cc1cnc(-c2cc(O)cc(C(=O)N[C@H](C)c3cnc(C(F)(F)F)nc3)c2)s1 [M-6],"Remaining drug and formation of metabolites, Peak Area",CYP1A1,0.5 % of Radioactivity
same,"Remaining drug and formation of metabolites, Peak Area",CYP2B6,0.4 % of Radioactivity
same,"Remaining drug and formation of metabolites, Peak Area","CYP3A4; 1 µM [3H]filapixant, CYP3A4, 60 min",6.0 % of Radioactivity
same,Vmax of metabolite formation,"CYP3A4; filapixant in recombinant human CYP3A4 (25 pmol/mL), 20 min incubation",7.78E+04 peak area/pmol CYP/min
same,"Remaining drug and formation of metabolites, Peak Area",CYP3A5,0.8 % of Radioactivity
same,"Recovery of filapixant and metabolite formation, Liver Microsomes",[1],4.4 % of radioactivity
same,Vmax of metabolite formation,"[2]; filapixant in human liver microsomes (0.5 mg/mL), 30 min incubation",1.32E+05 peak area/pmol CYP/min
same,Km at 30 min,"[2]; human, human liver microsomes, probe filapixant (substrate), read-out: Km,app of metabolite formation",68 µM
